{"source": "patent US8524498B2", "about": "“Methods and compositions for homologous recombination in human cells” (The General Hospital Corporation, priority 2009, dated 2013)", "key": {"[1]": {"test_system": "human pluripotent stem cells", "assay": "Culture of human pluripotent stem cells with pharmacological inhibitors: passaging, proliferation, colony morphology", "format": "cell-based", "conditions": "for colony morphology of human pluripotent stem cells (ES cells and iPS cells): CHIR99021 (3 μM) together with PD98059 (50 μM)", "text": "FIGS. 12A-12C: Inhibition of PKA or GSK3β signaling enhances human pluripotent stem cell proliferation rate and improves the introduction of transgenes by homologous recombination. 12A. Cell proliferation curve. Cell numbers of human iPS cells were counted at the indicated time intervals. Plotted is the cumulative cell number over 37 days of culture. All cells were maintained in standard human iPS culture conditions (e.g., Maherali et al. Cell Stem Cell 2008, 3:340-345) with indicated additions: DMSO ([…], 0.1%); CHIR99021 (GSK3β inhibitor, 3 μM), Kenpaullone (GSK3β inhibitor, 5 μM); BIO (GSK3β inhibitor, 15 μM) and SB216763 (GSK3β inhibitor, 1 μM). 12B Colony morphology of human pluripotent stem cells cultured in the presence of the GSK3β inhibitor (3 μM) and PD98059 (50 μM). 12C Influence of signaling inhibitors on the introduction of a 10 kb transgene construct carrying a puromycin selection cassette. Puromycin selection was applied at 0.25 μg/mL 48 hours after electroporation of human iPS cells with 20 μg of the linearized plasmid.\nIt was therefore sought to explore if small molecule inhibitors can affect human pluripotent stem cell colony morphology, proliferation and the ability to introduce transgenes using homologous recombination. Human pluripotent stem cells were maintained in standard medium (DMEM/F12 containing 20% knockout serum replacement, 2 mM L-Glutamine, 1% non-essential amino acids, 100 U of penicillin, 100 μg streptomycin, 0.1 mM beta-mercaptoethanol and 5 ng/mL bFGF, with or without pharmacological inhibitors.\nThe inhibition of GSK3β can increase the frequency of homologous recombination in both iPS cells derived in the presence of the five reprogramming factors as described above, and in human ES cells. The human ES cells acquired a mouse ES cell-like morphology, became capable of single cell expansion, and became capable of trypsin passaging when incubated with a GSK3β inhibitor. The effect and the increase in homologous recombination could be facilitated by co-addition of MEK inhibitor(s)."}, "[2]": {"test_system": "hLR5 cells", "assay": "Conversion of hLR5 cells into stable pluripotent LD-hiPS colonies", "format": "cell-based, human", "conditions": "for enhancement of hLR5 conversion: titration curve of GSK3β inhibitor alone or in combination with LIF and/or PD98059, even at high concentration (not shown); for conversion frequency of hLR5 cells into LD-hiPS cells: LIF and MEK inhibitor PD98059 added during the conversion process, about 0.01% without; for increase in conversion frequency compared to FGF alone: LIF and PD98059 (50 μM) in combination; for hLR5 conversion rate: agent added alone to bFGF after doxycycline withdrawal, PD98059 50 μM", "procedure": "FIG. 9: Conversion rate of hLR5 cells into LD-hi PS cells is influenced by growth factors and inhibition of MEK signaling. Bar graph indicates the average number of stable pluripotent LD-hiPS colonies obtained after plating of 100.000 hLR5 cells in the presence of the indicated combinations of growth factors and MEK inhibitor (PD98059, 50 μM).\nFIG. 4A outlines the procedure of converting hLR5 cells into stable iPS cells. Clonal hLR5 cell lines were plated at a density of 5000 cells per cm^2 in media containing human LIF and doxycycline to support the continued expression of ectopic reprogramming factors. The next day, doxycycline was withdrawn from the hLR5 cultures and cells were further maintained in the presence of bFGF alone (FIG. 4A). […] These cells are referred to herein as hLR5-derived human iPS cells (LD-hiPS) to signify their prior hLR5 status. The conversion frequency of hLR5 cells into LD-hiPS cells was low, approximately 0.01%, yet similar to the conversion of murine metastable iPS cells of the NOD strain into stable EpiSC-like iPS cells (Hanna et al., 2009). […] Whether LIF and/or small molecule inhibitors could positively influence the conversion of hLR5 cells to a stable pluripotent state was analyzed."}, "[3]": {"test_system": "hLR5 cells", "assay": "SSEA1 cell surface marker expression by flow cytometry on hLR5 cells cultured with pathway inhibitors", "format": "cell-based, human", "conditions": "flow cytometry after 1 week culture in hLR5 media with inhibitor; Jak-inhibitor I 0.6 μM, PD98059 50 μM, PD1 84352 0.8 μM, PD0325901 1 μM", "text": "(§1) FIGS. 2A-2F: LIF-responsiveness of hLR5 cells. 2A Western blot analysis of STAT3 phosphorylation in two independent hLR5 clones, with or without LIF-stimulation as indicated; 2B Immunostaining of STAT3 subcellular localization in hLR5 cells before (top panel) or after (bottom panel) LIF stimulation. Note the translocation of STAT3 from the cytoplasm (top panel) to the nucleus (bottom panel). Cell nuclei were visualized with DAPI; 2C Gene expression analysis of downstream target genes of the JAK/STAT signaling pathway in three hLR5 clones as well as human ES cell lines and conventional human iPS cell lines; 2D Flow cytometry analysis of SSEA 1 surface marker on hLR5 cells upon LIF removal. Lines indicate (i) LIF control, (ii) LIF substitution with bFGF, and (iii) no added growth factor; 2E Colony morphology of the hLR5 cells before (top panel) and after LIF substitution with bFGF; 2F Flow cytometry analysis of SSEA1 cell surface marker expression on hLR5 cells in the presence of small molecule inhibitors of the JAK/STAT and MEK/ERK signaling pathways. hLR5 cells were maintained in hLR5 media for 1 week in the presence of inhibitors. Grey shaded area: Jak-inhibitor, lines: MEK inhibitors (PD9805, PD1 84352 and PD0325901, as indicated). A line indicating a control (i.e., lacking inhibitor) is also present.\nUpon removal or substitution of LIF from the hLR5 culture media, SSEA1 expression waned (FIG. 2D). In addition, a change in colony morphology was observed following LIF withdrawal (FIG. 2E). In murine ES cells, LIF activates the JAK/STAT3 and the RAS/MEK/MAPK signaling pathways, which have opposing roles in murine ES cell maintenance and differentiation. […] Specific inhibitors of JAK/STAT signaling or the MAPK/MEK signaling pathway were used to examine the relative role of these pathways in hLR5 cells. SSEA1 cell surface marker expression was examined by flow cytometry upon culture of hLR5 cells in the presence of specific inhibitors for 1 week.\nCells were collected by trypsinization and resuspended in ice-cold RPMI+0.5% FBS. Cells were incubated with the antibodies against the indicated surface antigens for 30 min at 4° C. The following antibodies were used for cell surface marker profiling: SSEA 1 (BD BIOSCIENCES™), TRA-1-81, TRA-1-60, SSEA3 and SSEA4 (MILLIPORE™). Cells were washed twice with RPMI/0.5% FBS and incubated with the relevant fluorophore-conjugated secondary antibody (BD BIOSCIENCES™) for 30 min at 4° C. Cells were washed twice with RPMI/0.5% FBS, resuspended in RPMI/0.5% FBS and analyzed on a BECTON-DICKINSON FACSCALIBUR™ cell analyzer."}, "[4]": {"test_system": "JAK-STAT signaling pathway", "assay": "LIF stimulation of hLR5 cells: JAK-STAT pathway activation (Western blot, STAT3 immunostaining, gene expression)", "format": "cell-based, human", "text": "as §1, with “present. […]” for “present.”"}}, "data": [{"compound": "Cc1c[nH]c(-c2cnc(NCCNc3ccc(C#N)cn3)nc2-c2ccc(Cl)cc2Cl)n1", "note": "[CHIR99021]", "values": [{"measurement": "colony morphology of human pluripotent stem cells (ES cells and iPS cells)", "setting": "[1]", "result": "adopted the characteristic tight dome-shaped morphology of murine ES cells"}, {"measurement": "enhancement of hLR5 conversion", "setting": "[2]", "result": "did not enhance hLR5 conversion"}]}, {"compound": "C[S+](C)[O-]", "note": "[DMSO]", "values": [{"measurement": "trypsin passaging of human pluripotent stem cells", "setting": "[1]; standard medium with inhibitor, DMSO 0.1%", "result": "allowed trypsin passaging"}, {"measurement": "pluripotent stem cell proliferation rate", "setting": "[1]; standard medium with inhibitor, DMSO 0.1%, cumulative cell number over 37 days", "result": "enhanced the pluripotent stem cell proliferation rate"}]}, {"compound": "O=C1Cc2c([nH]c3ccc(Br)cc23)-c2ccccc2N1", "note": "[Kenpaullone]", "values": [{"measurement": "enhancement of hLR5 conversion", "setting": "[2]", "result": "did not enhance hLR5 conversion"}]}, {"compound": "O=C(NOCC1CC1)c1ccc(F)c(F)c1Nc1ccc(I)cc1Cl", "note": "[PD1 84352]", "values": [{"measurement": "expression of SSEA1 on hLR5 cells", "setting": "[3]", "result": "did not affect cell surface marker expression"}]}, {"compound": "COc1cccc(-c2cc(=O)c3ccccc3o2)c1N", "note": "[PD98059]", "values": [{"measurement": "expression of SSEA1 on hLR5 cells", "setting": "[3]", "result": "did not affect cell surface marker expression"}, {"measurement": "colony morphology of human pluripotent stem cells (ES cells and iPS cells)", "setting": "[1]", "result": "adopted the characteristic tight dome-shaped morphology of murine ES cells"}, {"measurement": "conversion frequency of hLR5 cells into LD-hiPS cells", "setting": "[2]", "result": "~0.1", "unit": "%"}, {"measurement": "increase in conversion frequency compared to FGF alone", "setting": "[2]", "result": "~8", "unit": "fold"}, {"measurement": "hLR5 conversion rate", "setting": "[2]", "result": "slight increase"}]}, {"compound": "O=C(NOC[C@H](O)CO)c1ccc(F)c(F)c1Nc1ccc(I)cc1F", "note": "[PD0325901]", "values": [{"measurement": "expression of SSEA1 on hLR5 cells", "setting": "[3]", "result": "did not affect cell surface marker expression"}]}, {"compound": "Jak-inhibitor I", "values": [{"measurement": "expression of SSEA1 on hLR5 cells", "setting": "[3]", "result": "marked decrease"}]}, {"compound": "LIF: human LIF growth factor activating JAK-STAT signaling", "values": [{"measurement": "STAT3 nuclear translocation in hLR5 cells", "setting": "[4]; 15 minute stimulation with human LIF, immunofluorescence", "result": "rapid STAT3 nuclear translocation"}, {"measurement": "STAT3 phosphorylation in hLR5 cells", "setting": "[4]; LIF stimulation, Western blot", "result": "robustly induces STAT3 phosphorylation"}, {"measurement": "conversion frequency of hLR5 cells into LD-hiPS cells", "setting": "[2]", "result": "~0.1", "unit": "%"}, {"measurement": "increase in conversion frequency compared to FGF alone", "setting": "[2]", "result": "~8", "unit": "fold"}, {"measurement": "hLR5 conversion rate", "setting": "[2]", "result": "slight increase"}]}]}
